Test results as given in patent US6525001B1, “Substituted pyrimidine and pyridine herbicides” (Mid-American Commercialization Corporation, priority 1997, dated 2003).

What was measured:
Type in all cases: in vivo
[1] = test system: bedstraw (Galium aparine); assay: Test B pre-/postemergence; design: key: 0 is no effect; 10 is complete control
Summary of the method: (§1)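 Scored visually 0 (none) to 10 (complete control) against untreated plants after twelve to sixteen greenhouse days. Test chemicals, formulated in surfactant-containing non-phytotoxic solvent, applied to soil after planting and, separately, onto 1- to 4-leaf (2–18 cm) plants.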

[2] = test system: blackgrass (Alopecurus myosuroides); assay: Test B pre-/postemergence; design: key: 0 is no effect; 10 is complete control
Summary of the method: as §1

[3] = test system: broadleaf signalgrass (Brachiaria decumbens); assay: Test B pre-/postemergence; design: key: 0 is no effect; 10 is complete control
Summary of the method: as §1

[4] = test system: cocklebur (Xanthium strumarium); assay: Test B pre-/postemergence; design: key: 0 is no effect; 10 is complete control
Summary of the method: as §1

[5] = test system: corn (Zea mays); assay: Test B pre-/postemergence; design: key: 0 is no effect; 10 is complete control
Summary of the method: as §1

[6] = test system: crabgrass (Digitaria sanguinalis); assay: Test B pre-/postemergence; design: key: 0 is no effect; 10 is complete control
Summary of the method: as §1

[7] = test system: giant foxtail (Setaria faberii); assay: Test B pre-/postemergence; design: key: 0 is no effect; 10 is complete control
Summary of the method: as §1

[8] = test system: momingglory (Ipomoea hederacea); assay: Test B pre-/postemergence; design: key: 0 is no effect; 10 is complete control
Summary of the method: as §1

[9] = test system: pigweed (Amaranthus retroflexus); assay: Test B pre-/postemergence; design: key: 0 is no effect; 10 is complete control
Summary of the method: as §1

[10] = test system: purple nutsedge (Cyperus rotundus); assay: Test B pre-/postemergence; design: key: 0 is no effect; 10 is complete control
Summary of the method: as §1

[11] = test system: rape (Brassica napus); assay: Test B pre-/postemergence; design: key: 0 is no effect; 10 is complete control
Summary of the method: as §1

[12] = test system: soybean (Glycine max); assay: Test B pre-/postemergence; design: key: 0 is no effect; 10 is complete control
Summary of the method: as §1

[13] = test system: sugar beet (Beta vulgaris); assay: Test B pre-/postemergence; design: key: 0 is no effect; 10 is complete control
Summary of the method: as §1

[14] = test system: velvetleaf (Abutilon theophrasti); assay: Test B pre-/postemergence; design: key: 0 is no effect; 10 is complete control
Summary of the method: as §1

[15] = test system: wheat (Triticum aestivum); assay: Test B pre-/postemergence; design: key: 0 is no effect; 10 is complete control
Summary of the method: as §1

[16] = test system: wild oat (Avena fatua); assay: Test B pre-/postemergence; design: key: 0 is no effect; 10 is complete control
Summary of the method: as §1

[17] = test system: bamyardgrass (Echinochloa crus-galli); assay: Test B flood test
Summary of the method: (§2)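 Flood test on plants grown to the 2-leaf stage; treated plants kept in greenhouse twelve to sixteen days, then visually rated against controls on a 0 (no effect) to 10 (complete control) scale.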

[18] = test system: duck salad (Heteranthera limosa); assay: Test B flood test
Summary of the method: as §2

[19] = test system: rice (Oryza sativa); assay: Test B flood test
Summary of the method: as §2

[20] = test system: smallflower flatsedge (Cyperus difformis); assay: Test B flood test
Summary of the method: as §2

[21] = Rate 62 g/ha, Postemergence (flood test)
[22] = Rate 125 g/ha, Postemergence, flood test
[23] = Rate 250 g/ha, Postemergence (flood test species)

Cc1cnc(-c2ccc(C(F)(F)F)cc2)nc1C(C#N)c1cccc(C(F)(F)F)c1 (racemic) [Compound 17]
1: Bedstraw plant response rating ([1]; Rate 62 g/ha, Preemergence) | Plant response rating, Corn ([5]; Rate 250 g/ha, Preemergence) | Morningglory plant response rating ([8]; Rate 125 g/ha, Preemergence) | Sugarbeets plant response rating ([13]; Rate 62 g/ha, Preemergence) | Velvetleaf plant response rating ([14]; Rate 125 g/ha, Preemergence) | Plant response rating, Velvetleaf ([14]; Rate 250 g/ha, Preemergence) | Wheat plant response rating ([15]; Rate 125 g/ha, Preemergence)
10: Giant foxtail plant response rating ([7]; Rate 125 g/ha, Preemergence) | Plant response rating, Giant foxtail ([7]; Rate 250 g/ha, Preemergence) | Plant response rating, Redroot pigweed ([9]; Rate 125 g/ha, Postemergence) | Plant response rating, Redroot pigweed ([9]; Rate 250 g/ha, Postemergence) | Plant response rating, Redroot pigweed ([9]; Rate 250 g/ha, Preemergence) | Plant response rating, Sugarbeets ([13]; Rate 125 g/ha, Postemergence) | Plant response rating, Sugarbeets ([13]; Rate 250 g/ha, Postemergence)
9: Plant response rating, Bedstraw ([1]; Rate 125 g/ha, Postemergence) | Plant response rating, Bedstraw ([1]; Rate 250 g/ha, Postemergence) | Plant response rating, Blackgrass ([2]; Rate 250 g/ha, Preemergence) | Plant response rating, B. signalgrass ([3]; Rate 250 g/ha, Preemergence) | Plant response rating, Crabgrass ([6]; Rate 250 g/ha, Preemergence) | Plant response rating, Redroot pigweed ([9]; Rate 62 g/ha, Postemergence) | Redroot pigweed plant response rating ([9]; Rate 125 g/ha, Preemergence) | Plant response rating, Sugarbeets ([13]; Rate 62 g/ha, Postemergence) | Plant response rating, Sugarbeets ([13]; Rate 250 g/ha, Preemergence)
4: Plant response rating, B. signalgrass ([3]; Rate 62 g/ha, Postemergence) | Plant response rating, Cocklebur ([4]; Rate 62 g/ha, Postemergence) | Plant response rating, Crabgrass ([6]; Rate 62 g/ha, Postemergence) | Plant response rating, Crabgrass ([6]; Rate 125 g/ha, Postemergence) | Plant response rating, Crabgrass ([6]; Rate 250 g/ha, Postemergence) | Plant response rating, Giant foxtail ([7]; Rate 125 g/ha, Postemergence) | Redroot pigweed plant response rating ([9]; Rate 62 g/ha, Preemergence) | Plant response rating, Velvetleaf ([14]; Rate 125 g/ha, Postemergence) | Plant response rating, Wheat ([15]; Rate 250 g/ha, Postemergence) | Plant response rating, Wild oats ([16]; Rate 125 g/ha, Postemergence) | Plant response rating, Barnyardgrass [17, 21] | Plant response rating, Barnyardgrass [17, 22] | Plant response rating, Rice [19, 21] | Plant response rating, Rice [19, 22]
6: Plant response rating, Blackgrass ([2]; Rate 125 g/ha, Postemergence) | Blackgrass plant response rating ([2]; Rate 125 g/ha, Preemergence) | Plant response rating, Barnyardgrass [17, 23] | Plant response rating, Rice [19, 23]
7: Plant response rating, Blackgrass ([2]; Rate 250 g/ha, Postemergence) | B. signalgrass plant response rating ([3]; Rate 125 g/ha, Preemergence) | Plant response rating, B. signalgrass ([3]; Rate 250 g/ha, Postemergence) | Plant response rating, Morningglory ([8]; Rate 62 g/ha, Postemergence) | Plant response rating, Rape ([11]; Rate 62 g/ha, Postemergence) | Plant response rating, Velvetleaf ([14]; Rate 250 g/ha, Postemergence)
8: Plant response rating, Bedstraw ([1]; Rate 62 g/ha, Postemergence) | Plant response rating, Cocklebur ([4]; Rate 125 g/ha, Postemergence) | Plant response rating, Cocklebur ([4]; Rate 250 g/ha, Postemergence) | Crabgrass plant response rating ([6]; Rate 125 g/ha, Preemergence) | Plant response rating, Morningglory ([8]; Rate 125 g/ha, Postemergence) | Plant response rating, Morningglory ([8]; Rate 250 g/ha, Postemergence) | Plant response rating, Rape ([11]; Rate 125 g/ha, Postemergence) | Plant response rating, Rape ([11]; Rate 250 g/ha, Postemergence) | Plant response rating, Soybean ([12]; Rate 250 g/ha, Postemergence) | Sugarbeets plant response rating ([13]; Rate 125 g/ha, Preemergence) | Plant response rating, Wild oats ([16]; Rate 250 g/ha, Preemergence)
0: Cocklebur plant response rating ([4]; Rate 62 g/ha, Preemergence) | Cocklebur plant response rating ([4]; Rate 125 g/ha, Preemergence) | Plant response rating, Cocklebur ([4]; Rate 250 g/ha, Preemergence) | Corn plant response rating ([5]; Rate 62 g/ha, Preemergence) | Corn plant response rating ([5]; Rate 125 g/ha, Preemergence) | Morningglory plant response rating ([8]; Rate 62 g/ha, Preemergence) | Plant response rating, Nutsedge ([10]; Rate 62 g/ha, Postemergence) | Nutsedge plant response rating ([10]; Rate 62 g/ha, Preemergence) | Plant response rating, Nutsedge ([10]; Rate 125 g/ha, Postemergence) | Nutsedge plant response rating ([10]; Rate 125 g/ha, Preemergence) | Plant response rating, Nutsedge ([10]; Rate 250 g/ha, Postemergence) | Plant response rating, Nutsedge ([10]; Rate 250 g/ha, Preemergence) | Rape plant response rating ([11]; Rate 62 g/ha, Preemergence) | Soybean plant response rating ([12]; Rate 62 g/ha, Preemergence) | Soybean plant response rating ([12]; Rate 125 g/ha, Preemergence) | Plant response rating, Soybean ([12]; Rate 250 g/ha, Preemergence) | Velvetleaf plant response rating ([14]; Rate 62 g/ha, Preemergence) | Wheat plant response rating ([15]; Rate 62 g/ha, Preemergence)
5: Plant response rating, Bedstraw ([1]; Rate 250 g/ha, Preemergence) | Plant response rating, B. signalgrass ([3]; Rate 125 g/ha, Postemergence) | Giant foxtail plant response rating ([7]; Rate 62 g/ha, Preemergence) | Plant response rating, Giant foxtail ([7]; Rate 250 g/ha, Postemergence) | Wild oats plant response rating ([16]; Rate 125 g/ha, Preemergence) | Plant response rating, Wild oats ([16]; Rate 250 g/ha, Postemergence) | Plant response rating, Ducksalad [18, 22] | Plant response rating, Ducksalad [18, 23] | Plant response rating, S. Flatsedge [20, 23]
2: Blackgrass plant response rating ([2]; Rate 62 g/ha, Preemergence) | Plant response rating, Corn ([5]; Rate 62 g/ha, Postemergence) | Plant response rating, Corn ([5]; Rate 125 g/ha, Postemergence) | Plant response rating, Giant foxtail ([7]; Rate 62 g/ha, Postemergence) | Plant response rating, Morningglory ([8]; Rate 250 g/ha, Preemergence) | Rape plant response rating ([11]; Rate 125 g/ha, Preemergence) | Plant response rating, Velvetleaf ([14]; Rate 62 g/ha, Postemergence) | Wild oats plant response rating ([16]; Rate 62 g/ha, Preemergence) | Plant response rating, S. Flatsedge [20, 21]
3: Bedstraw plant response rating ([1]; Rate 125 g/ha, Preemergence) | Plant response rating, Blackgrass ([2]; Rate 62 g/ha, Postemergence) | B. signalgrass plant response rating ([3]; Rate 62 g/ha, Preemergence) | Plant response rating, Corn ([5]; Rate 250 g/ha, Postemergence) | Crabgrass plant response rating ([6]; Rate 62 g/ha, Preemergence) | Plant response rating, Rape ([11]; Rate 250 g/ha, Preemergence) | Plant response rating, Soybean ([12]; Rate 62 g/ha, Postemergence) | Plant response rating, Soybean ([12]; Rate 125 g/ha, Postemergence) | Plant response rating, Wheat ([15]; Rate 62 g/ha, Postemergence) | Plant response rating, Wheat ([15]; Rate 125 g/ha, Postemergence) | Plant response rating, Wheat ([15]; Rate 250 g/ha, Preemergence) | Plant response rating, Wild oats ([16]; Rate 62 g/ha, Postemergence) | Plant response rating, Ducksalad [18, 21] | Plant response rating, S. Flatsedge [20, 22]
